Assay results reported in patent publication US20100197604A1, “USE OF PEPTIDE AS A THERAPEUTIC AGENT” (priority 2007, published 2010).

Assays:
HepG2-2.2.15 cells = experiment: Cytotoxicity in HepG2-2.2.15 cells (dye uptake); conditions: test peptide 10 micrograms per ml
[1] = test system: MRC-5 cells (human embryonal lung fibroblasts); conditions: 6 days
HIV-1IIIB = experiment: HIV-1 antiviral assay (CPE reduction, MTS); assay type: cell-based; conditions: peptide 10 micrograms per ml, 6 days post-infection
CEM-SS cells = experiment: Cytotoxicity in CEM-SS cells (MTS cell viability); conditions: peptide 10 micrograms per ml
Pseudomonas aeruginosa = assay type: cell-based; conditions: 5 micrograms per ml
Streptococcus pneumoniae = assay type: cell-based; conditions: 5 micrograms per ml
MRSA = conditions: 5 micrograms per ml

In the case of Nc1ccn([C@@H]2CS[C@H](CO)O2)c(=O)n1 [Compound 3TC, Lamivudine], the “% Cell viability” value (HepG2-2.2.15 cells) is reported as 95.8%.
Nc1nc(O)c2ncn(COC(CO)CO)c2n1 [Ganciclovir] was tested, and the “% Cell viability” value [1] was 100%.
For Cc1cn([C@H]2C[C@H](N=[N+]=[N-])[C@@H](CO)O2)c(=O)[nH]c1=O [AZT], the “% CPE reduction in HIV-1 infected CEM-SS cells” value (HIV-1IIIB) was 99% and the “% Cell viability” value (CEM-SS cells) was 97%.
In the case of CC[C@H](C)[C@H](NC(=O)[C@H](Cc1ccc(O)cc1)NC(=O)[C@@H](NC(=O)[C@H](CCCNC(=N)N)NC(=O)[C@@H](N)CC(=O)O)C(C)C)C(=O)N[C@@H](Cc1c[nH]cn1)C(=O)N1CCC[C@H]1C(=O)N[C@@H](Cc1ccccc1)C(=O)O [Angiotensin II], the “% inhibition” value (Pseudomonas aeruginosa) is reported as 0.0%, the “% inhibition” value (Streptococcus pneumoniae) is reported as 100.0% and the “% inhibition” value (MRSA) is reported as 0.0%.
